In patent publication US7649020B2, “Modafinil polymorphic forms” (Cephalon France, priority 2002, dated 2010):
Where two headings read alike, the source gives them in different places.

Tests used:
[1] = Comparative bioavailability study in dogs, plasma levels of modafinil after a single oral dose; type: in vivo, dog
Procedure: A comparative bioavailability study was carried out in dogs to determine the pharmacokinetic profile of the new polymorphs form IV and form V of modafinil. The study was aimed to compare plasma levels of polymorphs form IV and form V versus the reference form I. Six male beagle dogs were randomly assigned to three groups according to a (3×3) Latin-square design. Each group was administered a single oral 30 mg/kg body weight dose of either form IV or form V or the reference form I and two successive administrations were separated by a one-week wash-out period according to the protocol design reported table 1.
Dogs were fasted overnight prior dosing and food was returned to them four hours after dosing. Blood samples were collected after each dose by venepuncture at predose (within one hour of dosing) and at 0.5, 1, 1.5, 2, 2.5, 3, 4, 5.5, 7, 9 and 24 hours post-dose. Blood samples were collected on heparinized test tubes and immediately centrifuged at 3,000 rpm. Then plasma was drawn off and stored frozen (−20° C.) until analyzed. Plasma concentrations of modafinil were determined by validated high-pressure liquid chromatography according to the method of Moachon G. et al. (J. Chromatog. B 1994; 654: 91). Pharmacokinetic parameters were determined using noncompartimental analysis.

[2] = Relative stability of polymorphic forms; type: physicochemical; conditions: 20° C. / room temperature
Source text: Modafinil form I was identified as the thermodynamic form (at room temperature). Form I is obtained via crystallization, preferably under atmospheric pressure, at room temperature.

[3] = Table 2, male beagle dogs, single oral 30 mg/kg, mean ± SEM, 30 mg/kg
[4] = Table 3, dogs, single oral 30 mg/kg, mean ± SEM, 30 mg/kg

SMILES: NC(=O)C[S+]([O-])C(c1ccccc1)c1ccccc1 (racemic) [Form I, 2-(benzhydrylsulfinyl) acetamide, reference compound]
- concentration at 4 h ([1]; male, beagle, dog, plasma, po, 30 mg/kg, Table 2, male beagle dogs, single oral 30 mg/kg, mean ± SEM, read-out: C4 h (plasma level measured at 4 hours post-dose)): 15400 ± 2560 ng/mL
- Cmax ([1]; male, beagle, dog, plasma, po, 30 mg/kg, Table 2, male beagle dogs, single oral 30 mg/kg, mean ± SEM, read-out: Cmax (maximum plasma level of modafinil)): 18600 ± 2300 ng/mL
- AUC(0-t) ([1]; male, beagle, dog, plasma, po, 30 mg/kg, Table 2, male beagle dogs, single oral 30 mg/kg, trapezoidal rule 0 to 24 hours post-dose, mean ± SEM, read-out: AUC0-24 h): 165 ± 23.7 µg·h/mL
- concentration at 1 h ([1]; male, beagle, dog, plasma, po, 30 mg/kg, Table 3, dogs, single oral 30 mg/kg, mean ± SEM, read-out: C1 h (plasma level at 1 hour post-dose)): 8810 ± 2450 ng/mL
- concentration at 1.5 h ([1]; male, beagle, dog, plasma, po, 30 mg/kg, Table 3, dogs, single oral 30 mg/kg, mean ± SEM, read-out: C1.5 h (plasma level at 1.5 hours post-dose)): 12700 ± 2390 ng/mL
- concentration at 2 h ([1]; male, beagle, dog, plasma, po, 30 mg/kg, Table 3, dogs, single oral 30 mg/kg, mean ± SEM, read-out: C2 h (plasma level at 2 hours post-dose)): 14200 ± 2230 ng/mL
- concentration at 2.5 h ([1]; male, beagle, dog, plasma, po, 30 mg/kg, Table 3, dogs, single oral 30 mg/kg, mean ± SEM, read-out: C2.5 h (plasma level at 2.5 hours post-dose)): 14200 ± 1950 ng/mL
- Cmax ([1]; male, beagle, dog, plasma, po, 30 mg/kg, Table 3, dogs, single oral 30 mg/kg, mean ± SEM, read-out: Cmax): 18600 ± 2300 ng/mL
- Tmax ([1]; male, beagle, dog, plasma, po, 30 mg/kg, Table 3, dogs, single oral 30 mg/kg, mean, read-out: Tmax (time to reach peak plasma level of modafinil)): 3 h
- MRT ([1]; male, beagle, dog, plasma, po, 30 mg/kg, Table 3, male beagle dogs, single oral 30 mg/kg, mean ± SEM, read-out: MRT (mean residence time)): 6.91 ± 0.53 h
- stability of the polymorphic form [2]: most stable form

SMILES: NC(=O)C[S+]([O-])C(c1ccccc1)c1ccccc1 (racemic) [Form IV, 2-(benzhydrylsulfinyl) acetamide]
- C4 h (plasma level measured at 4 hours post-dose) [1, 3]: 21230 ± 1880 ng/mL
- Cmax (maximum plasma level of modafinil) [1, 3]: 24980 ± 1120 ng/mL
- AUC0-24 h ([1]; Table 2, male beagle dogs, single oral 30 mg/kg, trapezoidal rule 0 to 24 hours post-dose, mean ± SEM, 30 mg/kg): 200.69 ± 18.09 µg·h/mL
- systemic exposure (Cmax and AUC0-24h) compared with form I ([1]; dogs, equivalent dose 30 mg/kg by oral route): substantially higher

SMILES: NC(=O)C[S+]([O-])C(c1ccccc1)c1ccccc1 (racemic) [Form V, 2-(benzhydrylsulfinyl) acetamide]
- C1 h (plasma level at 1 hour post-dose) [1, 4]: 12410 ± 2070 ng/mL
- C1.5 h (plasma level at 1.5 hours post-dose) [1, 4]: 15.31 ± 2.06 µg/mL
- C2 h (plasma level at 2 hours post-dose) [1, 4]: 16560 ± 2480 ng/mL
- C2.5 h (plasma level at 2.5 hours post-dose) [1, 4]: 16.37 ± 2.38 µg/mL
- Cmax [1, 4]: 18720 ± 2090 ng/mL
- Tmax (time to reach peak plasma level of modafinil) ([1]; Table 3, dogs, single oral 30 mg/kg, mean, 30 mg/kg): 1.67 h
- MRT (mean residence time) ([1]; Table 3, male beagle dogs, single oral 30 mg/kg, mean ± SEM, 30 mg/kg): 6.11 ± 0.36 h
- reduction in time needed to reach the concentration Cmax versus reference form I ([1]; dogs, equivalent oral dose 30 mg/kg): ~50%
- mean Tmax value relative to that of reference polymorph I ([1]; dogs, oral 30 mg/kg, data of Table 3): about 50%

SMILES: NC(=O)C[S+]([O-])C(c1ccccc1)c1ccccc1 (stereo not shown) [modafinil form II, 2-(benzhydrylsulfinyl) acetamide]
- stability of the polymorphic form [2]: unstable
